According to ChEMBL document CHEMBL1201862, “PubChem BioAssay data set” (2004):
Calls of active or inactive are those of the source.

What was measured:
Assay type in all cases: functional
[1] = target: T1, DNA dC->dU-editing enzyme APOBEC-3G (Homo sapiens, UniProt Q9HC16); test: SAR analysis of small molecule inhibitors of APOBEC3G DNA Deaminase via a fluorescence-based single-stranded DNA deaminase assay - Set 2.; conditions: read-out: IC50_Mean
[2] = target: T2, DNA dC->dU-editing enzyme APOBEC-3A (Homo sapiens, UniProt P31941); test: SAR analysis of small molecule inhibitors of APOBEC3A DNA Deaminase via a fluorescence-based single-stranded DNA deaminase assay - Set 2.; conditions: read-out: IC50_Mean
[3] = target: T2, DNA dC->dU-editing enzyme APOBEC-3A; test: Dose Response confirmation of small molecule APOBEC3A DNA Deaminase Inhibitors via a fluorescence-based single-stranded DNA deaminase assay. [Related pubchem assays (depositor defined):AID493011, AID493024]
[4] = target: T2, DNA dC->dU-editing enzyme APOBEC-3A; test: SAR analysis of small molecule inhibitors of APOBEC3A DNA Deaminase via a fluorescence-based single-stranded DNA deaminase assay.; conditions: read-out: IC50_Mean
[5] = target: T1, DNA dC->dU-editing enzyme APOBEC-3G; test: APOBEC3G deaminase inhibitors, SAR follow-up, biochemical, fluorescence, single-stranded DNA substrate (AID 602136); conditions: read-out: IC50_Mean
[6] = target: T1, DNA dC->dU-editing enzyme APOBEC-3G

Measured: IC50

T2 sequence (P31941 whole entry): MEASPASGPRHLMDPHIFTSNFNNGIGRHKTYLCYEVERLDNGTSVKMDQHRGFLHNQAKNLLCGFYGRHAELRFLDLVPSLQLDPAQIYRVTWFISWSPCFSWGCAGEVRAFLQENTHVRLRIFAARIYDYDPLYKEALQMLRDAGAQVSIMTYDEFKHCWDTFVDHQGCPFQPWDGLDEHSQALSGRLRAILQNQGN
T1 sequence (Q9HC16 whole entry): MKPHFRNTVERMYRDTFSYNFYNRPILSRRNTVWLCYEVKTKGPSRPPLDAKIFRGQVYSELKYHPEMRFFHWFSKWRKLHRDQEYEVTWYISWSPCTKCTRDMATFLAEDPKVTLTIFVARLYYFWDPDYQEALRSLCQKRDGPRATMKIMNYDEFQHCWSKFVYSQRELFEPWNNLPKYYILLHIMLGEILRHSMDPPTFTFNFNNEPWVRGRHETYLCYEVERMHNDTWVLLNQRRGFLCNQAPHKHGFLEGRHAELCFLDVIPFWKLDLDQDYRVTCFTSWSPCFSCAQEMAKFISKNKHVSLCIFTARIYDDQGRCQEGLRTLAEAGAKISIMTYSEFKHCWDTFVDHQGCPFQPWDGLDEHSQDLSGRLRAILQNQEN

CCC(=O)Nc1cccc(-c2nnc(SCC(=O)NCc3ccco3)n2C)c1
active: [1] 695 nM | [2] 4370 nM | [3] 1070 nM | [4] 1930 nM | [5] 1500 nM | [6] 5360 nM
